# Experimental data reported in paper PMC9401487 (Clinical Cancer Research, 2021).
# Tested on: patients with advanced solid tumors
# Assay: Phase I safety and tolerability
# Format: in vivo, human
# [1] = Cohort 7 (N=6), co-dosing 40 mg QD + carboplatin days 1 and 2
# [2] = Cohort 7: 40 mg QD days 1–2 + carboplatin AUC5 day 1, 6 patients
# [3] = all 36 patients, ceralasertib + carboplatin
structure (smiles),measurement,setting,value
C[C@@H]1COCCN1c1cc(C2([S@](C)(=N)=O)CC2)nc(-c2cc[nH]c3nccc2-3)n1 [ceralasertib],"TEAE Constipation, Grade 1–2",[1],"3 (50) patients, n (%)"
same,"TEAE Constipation, Grade ≥3",[1],"0 patients, n (%)"
same,"TEAE Contusion, Grade 1–2",[1],"1 (17) patients, n (%)"
same,"TEAE Contusion, Grade ≥3",[1],"0 patients, n (%)"
same,"TEAE Cough, Grade 1–2",[1],"0 patients, n (%)"
same,"TEAE Cough, Grade ≥3",[1],"0 patients, n (%)"
same,"TEAE Decreased appetite, Grade 1–2",[1],"3 (50) patients, n (%)"
same,"TEAE Decreased appetite, Grade ≥3",[1],"0 patients, n (%)"
same,"TEAE Diarrhea, Grade 1–2",[1],"1 (17) patients, n (%)"
same,"TEAE Diarrhea, Grade ≥3",[1],"0 patients, n (%)"
same,"TEAE Dizziness, Grade 1–2",[1],"0 patients, n (%)"
same,"TEAE Dizziness, Grade ≥3",[1],"0 patients, n (%)"
same,"TEAE Dyspnea, Grade 1–2",[1],"0 patients, n (%)"
same,"TEAE Dyspnea, Grade ≥3",[1],"0 patients, n (%)"
same,"TEAE Fatigue, Grade 1–2",[1],"4 (67) patients, n (%)"
same,"TEAE Fatigue, Grade ≥3",[1],"0 patients, n (%)"
same,"TEAE Hypocalcemia, Grade 1–2",[1],"1 (17) patients, n (%)"
same,"TEAE Hypocalcemia, Grade ≥3",[1],"0 patients, n (%)"
same,"TEAE Insomnia, Grade 1–2",[1],"0 patients, n (%)"
same,"TEAE Insomnia, Grade ≥3",[1],"0 patients, n (%)"
same,"TEAE Lower respiratory tract infection, Grade 1–2",[1],"0 patients, n (%)"
same,"TEAE Lower respiratory tract infection, Grade ≥3",[1],"0 patients, n (%)"
same,"TEAE Nausea, Grade 1–2",[1],"5 (83) patients, n (%)"
same,"TEAE Nausea, Grade ≥3",[1],"0 patients, n (%)"
same,"TEAE Neutropenia, Grade 1–2",[1],"0 patients, n (%)"
same,"TEAE Neutropenia, Grade ≥3",[1],"0 patients, n (%)"
same,"TEAE Neutrophil count decreased, Grade 1–2",[1],"0 patients, n (%)"
same,"TEAE Neutrophil count decreased, Grade ≥3",[1],"1 (17) patients, n (%)"
same,"TEAE Platelet count decreased, Grade 1–2",[1],"2 (33) patients, n (%)"
same,"TEAE Platelet count decreased, Grade ≥3",[1],"1 (17) patients, n (%)"
same,"TEAE Pyrexia, Grade 1–2",[1],"1 (17) patients, n (%)"
same,"TEAE Pyrexia, Grade ≥3",[1],"0 patients, n (%)"
same,"TEAE Thrombocytopenia, Grade 1–2",[1],"0 patients, n (%)"
same,"TEAE Thrombocytopenia, Grade ≥3",[1],"0 patients, n (%)"
same,"TEAE Upper respiratory tract infection, Grade 1–2",[1],"1 (17) patients, n (%)"
same,"TEAE Upper respiratory tract infection, Grade ≥3",[1],"0 patients, n (%)"
same,"TEAE Vomiting, Grade 1–2",[1],"0 patients, n (%)"
same,"TEAE Vomiting, Grade ≥3",[1],"1 (17) patients, n (%)"
same,"TEAE White blood cell count decreased, Grade 1–2",[1],"0 patients, n (%)"
same,"TEAE White blood cell count decreased, Grade ≥3",[1],"0 patients, n (%)"
same,Number of DLTs,[2],one DLT of grade 4 platelet count decreased
same,SRC decision (tolerability),[2],declared safe and well tolerated
same,Patients who discontinued treatment because of an AE,N=36,14%
same,"TEAE Abdominal pain, Grade 1–2",Total (N=36),"5 (14) patients, n (%)"
same,"TEAE Abdominal pain, Grade ≥3",Total (N=36),"1 (3) patients, n (%)"
same,"TEAE Alanine aminotransferase increased, Grade 1–2",Total (N=36),"3 (8) patients, n (%)"
same,"TEAE Alanine aminotransferase increased, Grade ≥3",Total (N=36),"1 (3) patients, n (%)"
same,"TEAE Anemia, Grade 1–2",Total (N=36),"11 (31) patients, n (%)"
same,"TEAE Anemia, Grade ≥3",Total (N=36),"14 (39) patients, n (%)"
same,"TEAE Any AE, Grade 1–2",Total (N=36),"9 (25) patients, n (%)"
same,"TEAE Any AE, Grade ≥3",Total (N=36),"27 (75) patients, n (%)"
same,"TEAE Arthralgia, Grade 1–2",Total (N=36),"4 (11) patients, n (%)"
same,"TEAE Arthralgia, Grade ≥3",Total (N=36),"0 patients, n (%)"
same,"TEAE Aspartate aminotransferase increased, Grade 1–2",Total (N=36),"3 (8) patients, n (%)"
same,"TEAE Aspartate aminotransferase increased, Grade ≥3",Total (N=36),"1 (3) patients, n (%)"
same,"TEAE Constipation, Grade 1–2",Total (N=36),"10 (28) patients, n (%)"
same,"TEAE Constipation, Grade ≥3",Total (N=36),"0 patients, n (%)"
same,"TEAE Contusion, Grade 1–2",Total (N=36),"4 (11) patients, n (%)"
same,"TEAE Contusion, Grade ≥3",Total (N=36),"0 patients, n (%)"
same,"TEAE Cough, Grade 1–2",Total (N=36),"5 (14) patients, n (%)"
same,"TEAE Cough, Grade ≥3",Total (N=36),"0 patients, n (%)"
same,"TEAE Decreased appetite, Grade 1–2",Total (N=36),"8 (22) patients, n (%)"
same,"TEAE Decreased appetite, Grade ≥3",Total (N=36),"0 patients, n (%)"
same,"TEAE Diarrhea, Grade 1–2",Total (N=36),"6 (17) patients, n (%)"
same,"TEAE Diarrhea, Grade ≥3",Total (N=36),"0 patients, n (%)"
same,"TEAE Dizziness, Grade 1–2",Total (N=36),"4 (11) patients, n (%)"
same,"TEAE Dizziness, Grade ≥3",Total (N=36),"0 patients, n (%)"
same,"TEAE Dyspnea, Grade 1–2",Total (N=36),"5 (14) patients, n (%)"
same,"TEAE Dyspnea, Grade ≥3",Total (N=36),"0 patients, n (%)"
same,"TEAE Fatigue, Grade 1–2",Total (N=36),"16 (44) patients, n (%)"
same,"TEAE Fatigue, Grade ≥3",Total (N=36),"1 (3) patients, n (%)"
same,"TEAE Hypocalcemia, Grade 1–2",Total (N=36),"4 (11) patients, n (%)"
same,"TEAE Hypocalcemia, Grade ≥3",Total (N=36),"0 patients, n (%)"
same,"TEAE Insomnia, Grade 1–2",Total (N=36),"5 (14) patients, n (%)"
same,"TEAE Insomnia, Grade ≥3",Total (N=36),"0 patients, n (%)"
same,"TEAE Lower respiratory tract infection, Grade 1–2",Total (N=36),"4 (11) patients, n (%)"
same,"TEAE Lower respiratory tract infection, Grade ≥3",Total (N=36),"1 (3) patients, n (%)"
same,"TEAE Nausea, Grade 1–2",Total (N=36),"20 (56) patients, n (%)"
same,"TEAE Nausea, Grade ≥3",Total (N=36),"1 (3) patients, n (%)"
same,"TEAE Neutropenia, Grade 1–2",Total (N=36),"4 (11) patients, n (%)"
same,"TEAE Neutropenia, Grade ≥3",Total (N=36),"9 (25) patients, n (%)"
same,"TEAE Neutrophil count decreased, Grade 1–2",Total (N=36),"0 patients, n (%)"
same,"TEAE Neutrophil count decreased, Grade ≥3",Total (N=36),"4 (11) patients, n (%)"
same,"TEAE Platelet count decreased, Grade 1–2",Total (N=36),"4 (11) patients, n (%)"
same,"TEAE Platelet count decreased, Grade ≥3",Total (N=36),"2 (6) patients, n (%)"
same,"TEAE Pyrexia, Grade 1–2",Total (N=36),"9 (25) patients, n (%)"
same,"TEAE Pyrexia, Grade ≥3",Total (N=36),"0 patients, n (%)"
same,"TEAE Thrombocytopenia, Grade 1–2",Total (N=36),"12 (33) patients, n (%)"
same,"TEAE Thrombocytopenia, Grade ≥3",Total (N=36),"13 (36) patients, n (%)"
same,"TEAE Upper respiratory tract infection, Grade 1–2",Total (N=36),"4 (11) patients, n (%)"
same,"TEAE Upper respiratory tract infection, Grade ≥3",Total (N=36),"0 patients, n (%)"
same,"TEAE Vomiting, Grade 1–2",Total (N=36),"7 (19) patients, n (%)"
same,"TEAE Vomiting, Grade ≥3",Total (N=36),"2 (6) patients, n (%)"
same,"TEAE White blood cell count decreased, Grade 1–2",Total (N=36),"0 patients, n (%)"
same,"TEAE White blood cell count decreased, Grade ≥3",Total (N=36),"5 (14) patients, n (%)"
same,"TEAE anemia, any grade, patients",[3],69.4%
same,"TEAE fatigue, any grade, patients",[3],47%
same,"TEAE grade ≥3 anemia, patients",[3],39%
same,"TEAE grade ≥3 neutropenia, patients",[3],25%
same,"TEAE grade ≥3 thrombocytopenia, patients",[3],36%
same,"TEAE nausea, any grade, patients",[3],58%
same,"TEAE neutropenia, any grade, patients",[3],36%
same,"TEAE thrombocytopenia, any grade, patients",[3],69.4%
same,AEs with a fatal outcome,all cohorts,no AEs with a fatal outcome were reported
same,"Clinical chemistry laboratory variables, vital signs, ECG parameters",all cohorts,No clinically significant findings
same,Patients with dose modifications,"cycle 1 and beyond, N=36",47%
same,Patients with dose reductions,"cycle 1 and beyond, N=36",25%
same,Patients with treatment interruptions,"cycle 1 and beyond, N=36",31%
same,MTD dose schedule (concurrent),"days 1–2, with carboplatin AUC5, 21-day cycles",40 mg once daily
same,MTD dose schedule (sequential),"days 4–13, with carboplatin AUC5, 21-day cycles",20 mg twice daily
same,Patients who experienced ≥1 TEAE,safety set N=36,36 patients
